What is called IC50 is the point on the concentration scale where inhibition reaches its midpoint. A word on the Ki: it is the equilibrium dissociation constant of an inhibitor or competing ligand from its target.

This is an account of results in article PMC11050443, “Discovery of Strong 3-Nitro-2-Phenyl-2H-Chromene Analogues as Antitrypanosomal Agents and Inhibitors of Trypanosoma cruzi Glucokinase” (International Journal of Molecular Sciences, 2024).

The test system of one data set is T. cruzi. More on the design: method as in PMID 26778112. The conditions noted are these: cited from earlier work.
A further data set addresses TcGlcK. More on the design: method as in PMID 26778112. The conditions noted are these: competitive inhibitor, previous study; cited from earlier work.
Data set [1] concerns the target T1, TcGlcK (Trypanosoma cruzi glucokinase) (Trypanosoma cruzi, UniProt Q4E4E1).
T1 construct: made in house; host or cells: Escherichia coli BL21(DE3)
T1 sequence (Q4E4E1 1-376): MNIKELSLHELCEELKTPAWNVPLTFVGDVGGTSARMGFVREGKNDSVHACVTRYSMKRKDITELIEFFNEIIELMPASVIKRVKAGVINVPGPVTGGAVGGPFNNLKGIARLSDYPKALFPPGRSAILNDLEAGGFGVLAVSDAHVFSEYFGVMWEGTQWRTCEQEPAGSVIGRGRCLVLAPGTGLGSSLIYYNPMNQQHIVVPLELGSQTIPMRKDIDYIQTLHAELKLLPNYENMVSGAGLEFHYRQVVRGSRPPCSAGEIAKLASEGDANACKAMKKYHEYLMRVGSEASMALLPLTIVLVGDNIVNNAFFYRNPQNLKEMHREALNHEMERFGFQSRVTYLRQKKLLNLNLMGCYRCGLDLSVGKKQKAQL
Put plainly: TcGlcK primary screening assay (LmG6PDH-coupled, Dixon plots). The data set is classed as biochemical. The conditions noted are these: Dixon plots; 0.4, 0.6, 0.8 mM D-glucose; N = 1 unless marked, N = 3 for compounds 1, 4, 9, 11. Here is the method: A primary screening assay was carried out for TcGlcK with the 3-nitro-2-phenyl-2H-chromene analogues. The data was subsequently processed for respective Ki values in order to assess enzyme inhibition. […] The primary screening assay was performed with the substrate D-glucose in various concentrations of 0.4 mM, 0.6 mM, and 0.8 mM to produce Dixon plots with different slopes. Each of the 3-nitro-2-phenyl-2H-chromene analogues were originally prepared at a working concentration of 1.0 mM and were dissolved in 100% DMSO. The final assay concentrations of the analogue compounds (inhibitors) ranged from 0.0–10.0 μM. The analogue compounds were pre-incubated with the enzyme system a minimum of 10 min prior to the initiation of the assay. The enzymatic reaction was carried out at room temperature (22 °C; temperature optimum) using ATP to initiate the reaction, and termination was performed after 120 s (time optimum) by stopping the reaction with the addition of an EDTA (pH 8.0) solution, to a final concentration of 100 mM. TcGlcK enzyme activity was analyzed for the production of NADPH. Each completed reaction mixture was added into a black, round-bottom microplate and scanned by a VANTAstar-F multi-mode microplate reader (BMG LABTECH, Inc.; Cary, NC, USA). The instrument was set to fluorescence mode and the wavelengths (λex = 340 nm; λem = 485 nm) were set to observe the relative fluorescence units of NADPH [40]. The enzyme-inhibition kinetics Ki value determination and the mode of inhibition was determined using the Cornish–Bowden Dixon Plot analysis method.

Data set [2] concerns the target T2, LmG6PDH (Leuconostoc mesenteroides glucose-6-phosphate dehydrogenase) (Leuconostoc mesenteroides, UniProt P11411).
T2 construct: purchased Worthington Biochemical Corporation
Put plainly: Confirmatory assay on the LmG6PDH enzyme-coupled system. The conditions noted are these: N = 4. It is filed as biochemical. The method, then:
Two criteria were examined in order to certify on-target confirmed hits: (a) the assessment of potential inhibition to the LmG6PDH enzyme-coupled system, and (b) the precision of the assay (per inhibitor), performed in quadruplicate (N = 4). Compounds were tested in quadruplicate in a black, round-bottom 96-well microplate in which wells were filled with a buffered solution (50 mM triethanolamine, 150 mM NaCl) amounting to a total volume of 206.5 μL that contained the following reagents at final assay concentrations: LmG6PDH (6.1 μg/mL), NADP^+ (0.54 mM), ATP (0.54 mM), MgCl2 (6.9 mM), DMSO (1.0% by vol.), D-glucose-6-phosphate (0.80 mM), and a 3-nitro-2-phenyl-2H-chromene analogue (20.0 μM). The analogue compounds were pre-incubated with the enzyme system a minimum of 10 min prior to the initiation of the assay. The enzymatic reactions were initiated and terminated similarly as described in the TcGlcK primary screen (vide supra). The production of NADPH was monitored using the VANTAstar-F multi-mode microplate reader set to fluorescent mode, λex = 340 nm and λem = 485 nm, over a 120-s timeframe.

For data set [3], the system named is T. brucei brucei (427 strain) bloodstream form. As to the kind of experiment: In vitro T. brucei biological assay (Alamar blue). It is filed as cell-based, Trypanosoma brucei brucei. The conditions noted are these: Trypanosoma brucei, 48 h, T. brucei brucei 427 strain bloodstream form growth inhibition; N = 3. Here is the method: The in vitro cell culture preparation of T. brucei brucei (427 strain) trypomastigote bloodstream form followed by treatment with inhibitors has recently been described by Ajayi and colleagues. The 3-nitro-2-phenyl-2H-chromene compounds (inhibitors) that were prepared as 10.0 mM stock solutions in 100% DMSO were thawed from −80 °C to room temperature. HMI-9 medium [Iscove’s modification of DMEM supplemented with 10% FBS, 10% serum plus (SAFC), 0.05 mM bathocuproinesulfonate, 1.5 mM L-cysteine, 1.0 mM hypoxanthine, 0.2 mM β-mercaptoethanol, 0.16 mM thymidine, and 1.0 mM pyruvate] was prepared. In a sterile, round-bottom, 96-well microplate, 100 μL of HMI-9 medium was added to each well. A volume of 2.0 μL of a given compound plus a volume of 98.0 μL of fresh media were both added to a well in the first row of the 96-well microplate; this was performed for each compound to be tested. Solutions were mixed with a micropipette followed by transfer of 100 μL to the next row and repeated. The compound solutions ranged from 0.0781–10.0 μM and this was accomplished by serial dilution using a 2-fold dilution. T. brucei parasites were centrifuged for 10 min at 900× g (without centrifuge breaks). The media was carefully discarded by aspiration and the parasites were resuspended in warm media. Parasites were counted in a Newbauer chamber. Afterwards, the parasites were diluted to 50,000 cells/mL (5000 cells/well) and 100 μL was added to each well of the 96-well microplate using a multichannel pipette. After 48 h, 20.0 μL of Alamar blue was added to each well and the plate was placed into an incubator for 4 h at 37 °C. Fluorescence readings were measured using a Victor Nivo multimode microplate reader (PerkinElmer, Inc.; Shelton, CT, USA) at λex = 530 nm and λem = 590 nm. All measurements were performed in triplicate and IC50 determinations for percent growth inhibition were carried out using GraphPad Prism 10.0. The detergent SDS was used as a positive control and its final solution concentration was 0.5%. Three control experiments were performed, as follows: (a) parasites alone, (b) parasites and 0.5% SDS, and (c) the medium alone.
(The colour change of resazurin is a common sign of viable cells or microbes.)

Another data set has as its system NIH-3T3 fibroblasts. As to the kind of experiment: In vitro cytotoxicity assay of mammalian NIH-3T3 fibroblasts (Alamar blue). It is filed as cell-based. The conditions noted are these: NIH-3T3 fibroblast growth inhibition, host cell toxicity; 4 days; N = 3. The method, then:
The in vitro cell culturing of mammalian NIH-3T3 fibroblasts following treatment with inhibitors to assess for cytotoxicity has previously been described. DMEM lacking phenol red and supplemented with 2% FBS and 1% PSG was warmed up. NIH-3T3 cells were trypsinized, as described in the cell culture protocol. When cells became detached, they were harvested in DMEM lacking phenol red and including 2% FBS and 1% PSG. The cells were centrifuged at 1000 rpm for 5 min, the medium was discarded, and the cells were resuspended in fresh DMEM lacking phenol red and including 2% FBS and 1% PSG. The cells were centrifuged at 1000 rpm for 5 min, resuspended in the medium, counted, and diluted to 500,000 cells/mL. Dilution was accomplished by transferring the stock number of cells into a sterile basin and 100 μL of cells was added to each well of a transparent, sterile, flat-bottom, 96-well microplate (50,000 cells/well) using a multichannel pipette. The plate was placed into the incubator for 3 h to allow cells to attach. The 3-nitro-2-phenyl-2H-chromene compounds were thawed from −80 °C to room temperature. The compounds were prepared as 10.0 mM stock solutions in 100% DMSO. A volume of 2.0 μL of a given compound plus a volume of 98.0 μL of fresh media were both added to a well in the first row of the 96-well microplate; this was performed for each compound to be tested. The solutions were mixed with a micropipette, followed by the transfer of 100 μL to the next row and repeated. The compound solutions ranged from 0.0139–30.3 μM and this was accomplished by serial dilution using a 3-fold dilution. After incubation for 4 days, 10.0 μL of Alamar blue was added to each well. Absorbance readings were measured using a Victor Nivo multimode microplate reader (PerkinElmer, Inc.; Shelton, CT, USA) at λ = 590 nm. All measurements were performed in triplicate and TC50 determinations for percent growth inhibition were carried out using GraphPad Prism 10.0. The final volume per well of cells and a given compound was 100 μL and this volume became 110 μL after the addition of Alamar blue. The detergent SDS was used as a positive control and its final solution concentration was 0.1%. Three controls were carried out, as follows: (a) NIH-3T3 cells alone, (b) perished NIH-3T3 cells (NIH-3T3 cells in the presence of 0.1% SDS), and (c) the medium alone.

Like-named read-outs stand apart in the source and are kept apart here.

T2 sequence (P11411 whole entry): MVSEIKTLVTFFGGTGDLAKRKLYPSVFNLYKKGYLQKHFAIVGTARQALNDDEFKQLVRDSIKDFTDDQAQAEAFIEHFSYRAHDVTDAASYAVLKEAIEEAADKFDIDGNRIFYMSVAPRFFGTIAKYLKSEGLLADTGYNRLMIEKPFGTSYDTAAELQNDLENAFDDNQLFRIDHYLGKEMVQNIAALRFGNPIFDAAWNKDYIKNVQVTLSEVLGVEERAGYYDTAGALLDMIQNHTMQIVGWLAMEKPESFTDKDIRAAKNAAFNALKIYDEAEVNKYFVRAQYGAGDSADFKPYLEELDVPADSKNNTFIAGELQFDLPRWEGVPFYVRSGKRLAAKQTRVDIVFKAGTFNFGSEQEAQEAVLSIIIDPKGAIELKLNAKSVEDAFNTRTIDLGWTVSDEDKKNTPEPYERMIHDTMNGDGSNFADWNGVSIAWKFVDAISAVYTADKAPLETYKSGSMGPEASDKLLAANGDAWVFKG

For `O=C(Cn1ccnc1[N+](=O)[O-])NCc1ccccc1` [Benznidazole, benznidazole], in the data set with T. cruzi (benznidazole control, previous work, read-out: T. cruzi IC50), the IC50 was 1120 ± 95 nM.
For the compound `O=C(N[C@H]1[C@@H](O)[C@H](O)C(CO)O[C@@H]1O)OCc1ccccc1` (some centres unmarked) [carboxybenzyl glucosamine], at TcGlcK, the Ki was 710 nM. Besides, the IC50 in the data set with T. cruzi (previous study, read-out: in vitro percent-growth-inhibition IC50 in T. cruzi culture) was 48700 nM.
Compound `O=[N+]([O-])C1=Cc2ccccc2OC1c1ccccc1Cl` (centres unmarked) [Compound 12, 2-(2-Chlorophenyl)-3-nitro-2H -chromene] registered a Ki in data set [1] of 14000 nM. Also, the “LmG6PDH inhibitory effect (in words)” value in data set [2] (20 µM compound) is given as “did not observe any significant LmG6PDH inhibitory effects”. The inhibition at 20 µM in data set [2] (percentage of inhibition at 20 µM compound in comparison to controls, read-out: LmG6PDH Inh20) was 8.6 ± 0.1%. The compound further displayed an IC50 in data set [3] of 1670 ± 60 nM. The “NIH-3T3 TC50” value in the data set with NIH-3T3 fibroblasts was 10900 ± 1550 nM.
